Measured values taken from patent US6528489B1, “Mycotoxin derivatives as antimitotic agents” (Ergon Pharmaceuticals LLC, priority 1999, dated 2003).
pIC50: −log10 of the molar value.

Key:
VEGF-stimulated HUVECs = experiment: VEGF-induced migration of human endothelial cells (modified Boyden chamber); type: cell-based; details: 5 ng/ml VEGF, six hours
From the text: A migration assay familiar to those skilled in the art using vascular endothelial growth factor (VEGF)-stimulated HUVECs was employed to determine the effect of aurovertin B on endothelial cell migration.
The endothelial cells were routinely cultured as previously described.
Modified Boyden chambers in a 48-well format consisting of upper and lower wells separated by an 8-microns pore polycarbonate filter coated with collagen were used to study VEGF-induced migration of HUVECs (Paragon Bioservices, Baltimore, Md.). The endothelial cells were added to the lower wells and the migrating factor (5 ng/ml VEGF) was added to the upper wells. HUVECs were allowed to migrate from the lower to the upper wells for six hours at 37° C., 5% CO2. At the end of the incubation period, the filters were removed and washed gently. The cells on the filters were then fixed, stained with hematoxylin, and counted with a light microscope. The values obtained represent the mean of ten fields.

[1] = system: murine B16F10 melanoma tumors; experiment: Growth of murine B16F10 melanoma tumors in C57 mice; type: in vivo; details: 2 mg/kg i.p. every day for 9 days
Experimental: The effect of aurovertin B and efrapeptin D on the growth of murine B16F10 melanoma tumors (ATCC, Rockville, Md.) was investigated. Groups of four C57 mice (The Jackson Laboratory, BarHarbor, Me.) were injected subcutaneously with 5×10^4 B16F10 cells (The Jackson Laboratory, BarHarbor, Me.). The mice were subsequently treated i.p. with 2 mg/kg aurovertin B, 0.4 mg/kg efrapeptin D, or vehicle control. The treatment was initiated three days after the tumor inoculation and continued every day for 9 days. The tumor growth was recorded at the end of the experiment.

bFGF-stimulated HUVECs = experiment: bFGF-induced proliferation of human endothelial cells (HUVEC proliferation assay); type: cell-based; details: 20 ng/ml bFGF, 48 hours, read-out: IC50 of Antiproliferative Effect
From the text: Proliferation assays familiar to those skilled in the art using human umbilical vein endothelial cells (HUVECs) were employed in order to determine the effect of various antibiotics on the growth of bFGF-stimulated HUVECs.
The materials for this experiments included endothelial cells (HUVECS) and media for their proliferation (Media 200, fetal bovine serum (FBS), gelatin, bFGF) (Paragon Bioservices, Baltimore, Md.), and Cell Titer 96 for detection of cell proliferation (Paragon Bioservices, Baltimore, Md.). Antibiotics aurovertin B, citreoviridin, oligomycin A, oligomycin B, oligomycin C, and efrapeptin D were all obtained from Sigma Chemical Company (St. Louis, Mo.).
HUVECs were routinely cultured to confluency in Media 200 containing 10% FBS. The cells were then trypsinized and plated in a 96-well plate pre-coated with 1% gelatin at 5000 cells per well per 100 μL Media 200 containing 2% FBS. The cells were allowed to adhere for 24 hours. Subsequently, the media were aspirated and fresh Media 200 containing 0.5% FBS were added to the wells. Addition of various concentrations of antibiotics in the presence and absence of 20 ng/ml bFGF followed. The assay plates were incubated at 37° C., 5% CO2 for 48 hours. At the end of the incubation period, cell proliferation was determined using cell counting (Cell Counter Model Z1, Coulter Incorporation, Miami, Fla.) or spectrophotometry. In the later case, the assay plates were incubated with Cell Titer 96 for 2 hours and the absorbance was recorded at 490 nm.

Row | SMILES | inhibition of VEGF-induced migration of HUVECs (in words) (VEGF-stimulated HUVECs) | mice that exhibited measurable, growing tumors at the end of the treatment [1] [%] | Number of mice that developed measurable tumors/Number of mice injected with tumor cells ([1]; started three days after tumor inoculation) | pIC50 (bFGF-stimulated HUVECs)
1 | CC[C@H]1O[C@]2(C)[C@H](OC(C)=O)[C@@]1(C)O[C@@H](/C=C/C=C/C=C/c1oc(=O)cc(OC)c1C)[C@@H]2O [Aurovertin, aurovertin B] | inhibited VEGF-induced migration of HUVECs | 50 | 2/4 | 5.00
2 | CC[C@@H]1C=CC=CC[C@H](C)[C@@H](O)[C@@H](C)C(=O)[C@H](C)[C@@H](O)[C@H](C)C(=O)[C@H](C)[C@@H](O)[C@H](C)C=CC(=O)O[C@H]2[C@@H](C)[C@@H](CC1)O[C@@]1(CC[C@@H](C)[C@@H](C[C@H](C)O)O1)[C@@H]2C [Oligomycin C, oligomycin C] |  |  |  | 5.30
3 | CC[C@@H]1/C=C/C=C/C[C@H](C)[C@H](O)[C@](C)(O)C(=O)[C@H](C)[C@@H](O)[C@H](C)C(=O)[C@H](C)[C@@H](O)[C@H](C)/C=C/C(=O)O[C@H]2[C@@H](C)[C@@H](CC1)O[C@@]1(CC[C@@H](C)[C@@H](C[C@H](C)O)O1)[C@@H]2C [Oligomycin A, oligomycin A] |  |  |  | 5.30
4 | CC[C@H]1/C=C/C=C/C[C@@H](C)[C@H](O)[C@@](C)(O)C(=O)[C@@H](C)[C@H](O)[C@@H](C)C(=O)[C@@H](C)[C@H](O)[C@@H](C)/C=C/C(=O)O[C@@H]2[C@H](C)[C@H](CC1)O[C@@]1(O[C@@H](C[C@@H](C)O)[C@@H](C)CC1=O)[C@H]2C [Oligomycin B, oligomycin B] |  |  |  | 5.30
5 | COc1cc(=O)oc(/C=C/C=C/C=C/C(C)=C/[C@@]2(C)O[C@H](C)[C@](C)(O)[C@H]2O)c1C [Citreoviridin, citreoviridin] |  |  |  | 5.00
